Among the data in article PMC10077692, “Phytochemical profile, comparative evaluation of Satureja montana alcoholic extract for antioxidants, anti-inflammatory and molecular docking studies” (BMC Complementary Medicine and Therapies, 2023) are MDA level values, retold here.

The test system of this experiment is MDA. Kind of experiment: In-vitro antioxidant assay, MDA. The class given is biochemical. As for the experimental part:
The enzymatic assays of COXs, LOX, TAC, Catalase, MDA, GSH, SOD, TNF -α, and MPO were determined colorimetrically as mentioned previously in reports.
Microsoft Excel 2010 program. All the data in Table 4 was represented as mean ± SD [23].
Total antioxidant capacity is the measure of the number of free radicals scavenged by a test solution, being used to evaluate the antioxidant capacity of biological samples. […] The standard ascorbic acid results were (19.7, 17.2 and 13.1 IU/ml) for TAC, Catalase and SOD, respectively.

For `O=C1O[C@H]([C@@H](O)CO)C(O)=C1O` [ascorbic acid], the MDA level was determined as 15.3 µg/mL.
